Values joined by “and” are separate entries in the source; they are usually repeats but may differ in a detail not shown here. Identical values can stand only once. “Also recorded” adds a separate entry of the source.
Columns and labels:
[1] = test system: Breast patient VII PDX tumors; assay: Breast patient VII PDX model, combination with DOX; assay type: in vivo, nude mice
Protocol: Nude mice bearing orthotopic the Breast patient VII PDX tumors received 5 mg/kg equivalent dose of GKT831 or HANP/GKT831 combined with 5 mg/kg of DOX via the tail vein once a week for 5 administrations.
Therapy resistant breast cancer PDX models were established in nude mice from surgically resected tumor tissues of both hormonal receptor positive (HR+) and triple negative breast cancer patients. Patient VII PDX model was derived tumor from HR+ breast cancer tissue that progressed after neoadjuvant therapy with Dox+ Taxol and adjuvant radiotherapy (50 Gy). Patient IX PDX model was derived from a breast cancer tissue that was resistant to Dox/cyclophosphamide/Taxol therapy and 50 Gy of pre-operative radiation therapy. Both patients developed recurrent tumors and deceased 23 and 25 months after surgery. […] CD44 is the cellular receptor for HA and therefore, HANP can target to CD44+ tumor and stromal cells. […] The targeted delivery of near-infrared (NIR) 830 dye labeled HANPs in the breast cancer PDX models were examined using optical imaging and histological analysis. […] Accumulation of HANPs in the liver was further examined.
The inhibition of NOX1/4 on tumor growth and sensitization of therapeutic responses to a chemotherapy drug, DOX, were examined in the breast Patient VII and Patient IX PDX models growing in the mammary fat pad of nude mice.

[2] = test system: ROS generation in MCF-7 cells (NOX1/4 activity); assay: ROS production in MCF-7 cells (DCFDA assay); assay type: cell-based, human
[3] = test system: Breast patient IX PDX tumors; assay: Breast patient IX PDX model, combination with Dox; assay type: in vivo, nude mice
[4] = test system: human breast cancer MCF-7 cells; assay: Cell proliferation assay on MCF-7 cells; assay type: cell-based; conditions: MCF7, read-out: IC50, growth inhibition
[5] = test system: Breast patient VII PDX tumors; assay: RNAseq gene expression profiles of PDX tumors after five i.v. treatments; assay type: in vivo, nude mice
Protocol: ATFB was increased by HANP/GKT831 but decrease in GKT831 treated tumor.
Biomaterial low molecular weight HA generated nanoparticle drug carrier has unique biological activities compared with other nanoparticle drug carriers. […] To understand molecular mechanisms by which HANP/GKT831 enhanced responses to DNA damaging drug and radiation, gene expression profiles of the breast patient VII PDX tumors following five i.v. treatments were analyzed using RNAseq assay. […] Since human immune cells express NOX2 subtype, HANP/GKT831 treatment may not affect tumor immune responses but GKT831 treatment may decrease immune responses in tumors. Furthermore, HANP/GKT831 inhibited the expression of mitochondrial electron transport and ATP production genes, which promote tumor cell death (FIG. 7B). […] Therefore, it is likely that those differences in gene regulation contributed to a strong chemo- and radiotherapy enhancement effect of HANP/GKT831.

SMILES	increase in tumor volume compared the starting tumor volume ([1]; 5 mg/kg i.v. weekly x5) [%]	tumor growth inhibition compared to no treatment control ([1]; single agent treatment)	ROS generation [2]	effect on tumor growth [3]	IC50 [4] [µM]	ATFB expression ([5]; PDX tumors (FIG. 7B))	expression of mitochondrial electron transport and ATP production genes ([5]; PDX tumors (FIG. 7B))	expression of mitochondrial electron transport and ATP production genes ([5]; PDX tumors (FIG. 7B), listed as GKT 831)	NOX2 gene expression ([5]; patient VII PDX tumors)	level of NOX4 gene expression ([5]; patient VII PDX tumors)	anti-tumor effect / tumor growth inhibition [1]
COc1cccc2c1C(=O)c1c(O)c3c(c(O)c1C2=O)C[C@@](O)(C(=O)CO)C[C@@H]3O[C@H]1C[C@H](N)[C@H](O)[C@H](C)O1 [DOX, doxorubicin]	150	~40% and 60%									
CN(C)c1cccc(-c2c3c(=O)n(-c4ccccc4Cl)[nH]c3cc(=O)n2C)c1 [GKT831, 2-(2-chlorophenyl)-4-(3-(dimethylamino)phenyl)-5-methyl-1,2-dihydro-3H-pyrazolo[4,3-c]pyridine-3,6(5H)-dione]			did not show obvious ROS reduction	did not show a significant difference; also recorded: did not show any effect on tumor growth	30	decrease	increased MT-ND and MT-CO2 expression	upregulated the expression of some of those genes	downregulated	did not significantly affect	did not show a significant difference

From patent publication US12377117B2, “Hyaluronic acid nanoparticles comprising NADPH oxidases inhibitors and uses in treating cancer” (priority 2019, dated 2025)
